What was measured:
SN12C = experiment: NCI DTP cell line screen (SRB), Renal Cancer; format: cell-based
Experimental: (§1) Screening of compounds 70 and 71 against several cancer cell lines The human tumor cell lines of the cancer screening panel are grown in RPMI 1640 medium containing 5% fetal bovine serum and 2 mM L-glutamine. For a typical screening experiment, cells are inoculated into 96 well microtiter plates in 100 μL at plating densities ranging from 5,000 to 40,000 cells/well depending on the doubling time of individual cell lines. After cell inoculation, the microtiter plates are incubated at 37° C., 5% CO2, 95% air and 100% relative humidity for 24 h prior to addition of experimental drugs.
(§2) After 24 h, two plates of each cell line are fixed in situ with TCA, to represent a measurement of the cell population for each cell line at the time of drug addition (Tz). Experimental drugs are solubilized in dimethyl sulfoxide at 400-fold the desired final maximum test concentration and stored frozen prior to use. At the time of drug addition, an aliquot of frozen concentrate is thawed and diluted to twice the desired final maximum test concentration with complete medium containing 50 μg/ml gentamicin. Additional four, 10-fold or ½ log serial dilutions are made to provide a total of five drug concentrations plus control. Aliquots of 100 μl of these different drug dilutions are added to the appropriate microtiter wells already containing 100 μl of medium, resulting in the required final drug concentrations.
(§3) Following drug addition, the plates are incubated for an additional 48 h at 37° C., 5% CO2, 95% air, and 100% relative humidity. For adherent cells, the assay is terminated by the addition of cold TCA. Cells are fixed in situ by the gentle addition of 50 μl of cold 50% (w/v) TCA (final concentration, 10% TCA) and incubated for 60 minutes at 4° C. The supernatant is discarded, and the plates are washed five times with tap water and air dried. Sulforhodamine B (SRB) solution (100 μl) at 0.4% (w/v) in 1% acetic acid is added to each well, and plates are incubated for 10 minutes at room temperature. After staining, unbound dye is removed by washing five times with 1% acetic acid and the plates are air dried. Bound stain is subsequently solubilized with 10 mM trizma base, and the absorbance is read on an automated plate reader at a wavelength of 515 nm. For suspension cells, the methodology is the same except that the assay is terminated by fixing settled cells at the bottom of the wells by gently adding 50 μl of 80% TCA (final concentration, 16% TCA). Using the seven absorbance measurements [time zero, (Tz), control growth, (C), and test growth in the presence of drug at the five concentration levels (Ti)], the percentage growth is calculated at each of the drug concentrations levels. Percentage growth inhibition is calculated as: [(Ti−Tz)/(C−Tz)]×100 for concentrations for which Ti>/=Tz [(Ti−Tz)/Tz]×100 for concentrations for which Ti<Tz
(§4) Three dose response parameters are calculated for each experimental agent. […] The drug concentration resulting in total growth inhibition (TGI) is calculated from Ti=Tz. […] Values are calculated for each of these three parameters if the level of activity is reached; however, if the effect is not reached or is exceeded, the value for that parameter is expressed as greater or less than the maximum or minimum concentration tested.
(§5) The methods described were used to test compounds 70 and 71 on a panel of sixty cell lines under a screening service provided by the Developmental Therapeutics Program at the National Institutes of Health. Shown in FIG. 1C are 1, RPMI-8226 leukemia cells; 2; NCI-H322M non-small cell lung cancer cells; 3, HT29 colon cancer cells; 4, U251 CNS cancer cells; 5, SK-MEL-28 melanoma cancer cells; 6, SK-OV-3 ovarian cancer cells; 7, RXF 393 renal cancer cells; 8, PC-3 prostate cancer cells; 9, MDA-MB-231 breast cancer cells.

A498 = experiment: NCI DTP cell line screen (SRB), Renal Cancer; format: cell-based
Experimental: as §1, §2, §3, §4, §5

786-0 = experiment: NCI DTP cell line screen (SRB), Renal Cancer; format: cell-based
Experimental: as §1, §2, §3, §4, §5

TK-10 = experiment: NCI DTP cell line screen (SRB), Renal Cancer; format: cell-based
Experimental: as §1, §2, §3, §4, §5

NCI-H522 = experiment: NCI DTP cell line screen (SRB), Non-Small Cell Lung Cancer; format: cell-based, human; conditions: for TGI: in M (unit assumed)
Experimental: as §1, §2, §3, §4, §5

KM12 = experiment: NCI DTP cell line screen (SRB), Colon Cancer; format: cell-based
Experimental: as §1, §2, §3, §4, §5

SW-620 = experiment: NCI DTP cell line screen (SRB), Colon Cancer; format: cell-based
Experimental: as §1, §2, §3, §4, §5

HCT-116 = experiment: NCI DTP cell line screen (SRB), Colon Cancer; format: cell-based
Experimental: as §1, §2, §3, §4, §5

[1] = read-out: LC50 (the source's name)

## N=C(N)Nc1ccc(-n2nc(C(F)(F)F)cc2-c2ccc3c(ccc4ccccc43)c2)cc1 [Compound 71, 4-[5-(2-Phenanthrenyl)-3-(trifluoromethyl)-1H-pyrazol-1-yl]-phenyl-guanidine]
SN12C
  GI50: 1570 nM
  TGI: 2.91E−06
SN12C; Log10 Concentration −4.0
  Mean Optical Densities: 0.224
  Percent Growth: −62%
SN12C; Log10 Concentration −5.0
  Mean Optical Densities: −0.014
  Percent Growth: −100%
SN12C; Log10 Concentration −6.0
  Mean Optical Densities: 1.045
  Percent Growth: 87%
SN12C; Log10 Concentration −7.0
  Mean Optical Densities: 0.998
  Percent Growth: 78%
SN12C; Log10 Concentration −8.0
  Mean Optical Densities: 1.050
  Percent Growth: 88%
A498
  GI50: 16500 nM
  TGI: 4.35E−05
A498; Log10 Concentration −4.0
  Mean Optical Densities: 0.540
  Percent Growth: −43%
A498; Log10 Concentration −5.0
  Mean Optical Densities: 1.903
  Percent Growth: 76%
A498; Log10 Concentration −6.0
  Mean Optical Densities: 1.869
  Percent Growth: 73%
A498; Log10 Concentration −7.0
  Mean Optical Densities: 2.087
  Percent Growth: 91%
A498; Log10 Concentration −8.0
  Mean Optical Densities: 2.413
  Percent Growth: 116%
A498; [1]
  CC50: > 100000 nM
786-0
  GI50: 1490 nM
  TGI: 2.91E−06
786-0; Log10 Concentration −4.0
  Mean Optical Densities: 0.458
  Percent Growth: −30%
786-0; Log10 Concentration −5.0
  Mean Optical Densities: 0.046
  Percent Growth: −93%
786-0; Log10 Concentration −6.0
  Mean Optical Densities: 1.663
  Percent Growth: 80%
786-0; Log10 Concentration −7.0
  Mean Optical Densities: 1.868
  Percent Growth: 96%
786-0; Log10 Concentration −8.0
  Mean Optical Densities: 1.862
  Percent Growth: 96%
TK-10
  GI50: 1320 nM
  TGI: 2.59E−06
TK-10; Log10 Concentration −4.0
  Mean Optical Densities: 0.245
  Percent Growth: −64%
TK-10; Log10 Concentration −5.0
  Mean Optical Densities: −0.021
  Percent Growth: −100%
TK-10; Log10 Concentration −6.0
  Mean Optical Densities: 0.998
  Percent Growth: 71%
TK-10; Log10 Concentration −7.0
  Mean Optical Densities: 1.087
  Percent Growth: 90%
TK-10; Log10 Concentration −8.0
  Mean Optical Densities: 1.032
  Percent Growth: 78%
TK-10; [1]
  CC50: 5090 nM
NCI-H522
  GI50: 1450 nM
  TGI: 2.82E−06
NCI-H522; Log10 Concentration −4.0
  Mean Optical Densities: 0.439
  Percent Growth: −43%
NCI-H522; Log10 Concentration −5.0
  Mean Optical Densities: 0.037
  Percent Growth: −95%
NCI-H522; Log10 Concentration −6.0
  Mean Optical Densities: 1.471
  Percent Growth: 78%
NCI-H522; Log10 Concentration −7.0
  Mean Optical Densities: 1.558
  Percent Growth: 87%
NCI-H522; Log10 Concentration −8.0
  Mean Optical Densities: 1.509
  Percent Growth: 82%
KM12
  GI50: 1590 nM
  TGI: 2.97E−06
KM12; Log10 Concentration −4.0
  Mean Optical Densities: 0.307
  Percent Growth: −43%
KM12; Log10 Concentration −5.0
  Mean Optical Densities: 0.013
  Percent Growth: −98%
KM12; Log10 Concentration −6.0
  Mean Optical Densities: 1.777
  Percent Growth: 87%
KM12; Log10 Concentration −7.0
  Mean Optical Densities: 1.832
  Percent Growth: 91%
KM12; Log10 Concentration −8.0
  Mean Optical Densities: 1.867
  Percent Growth: 94%
SW-620
  GI50: 1750 nM
  TGI: 3.13E−06
SW-620; Log10 Concentration −4.0
  Mean Optical Densities: 0.015
  Percent Growth: −92%
SW-620; Log10 Concentration −5.0
  Mean Optical Densities: −0.048
  Percent Growth: −100%
SW-620; Log10 Concentration −6.0
  Mean Optical Densities: 1.060
  Percent Growth: 98%
SW-620; Log10 Concentration −7.0
  Mean Optical Densities: 0.993
  Percent Growth: 91%
SW-620; Log10 Concentration −8.0
  Mean Optical Densities: 0.923
  Percent Growth: 83%
HCT-116
  GI50: 1290 nM
  TGI: 2.55E−06
HCT-116; Log10 Concentration −4.0
  Mean Optical Densities: 0.058
  Percent Growth: −49%
HCT-116; Log10 Concentration −5.0
  Mean Optical Densities: −0.022
  Percent Growth: −100%
HCT-116; Log10 Concentration −6.0
  Mean Optical Densities: 0.525
  Percent Growth: 68%
HCT-116; Log10 Concentration −7.0
  Mean Optical Densities: 0.633
  Percent Growth: 86%
HCT-116; Log10 Concentration −8.0
  Mean Optical Densities: 0.607
  Percent Growth: 82%

## NCC(=O)Nc1ccc(-n2nc(C(F)(F)F)cc2-c2ccc3c(ccc4ccccc43)c2)cc1 [Compound 70, 2-Amino-N-{4-[5-(2-phenanthrenyl)-3-(trifluoromethyl)-1H-pyrazol-1-yl]-phenyl}-acetamide]
SN12C
  TGI: 3.51E−06
SN12C; Log10 Concentration −4.0
  Percent Growth: −47%
SN12C; Log10 Concentration −5.0
  Percent Growth: −65%
SN12C; Log10 Concentration −6.0
  Percent Growth: 78%
SN12C; Log10 Concentration −7.0
  Percent Growth: 94%
SN12C; Log10 Concentration −8.0
  Percent Growth: 96%
A498
  TGI: 5.75E−06
A498; Log10 Concentration −4.0
  Percent Growth: −54%
A498; Log10 Concentration −5.0
  Percent Growth: −30%
A498; Log10 Concentration −6.0
  Percent Growth: 95%
A498; Log10 Concentration −7.0
  Percent Growth: 126%
A498; Log10 Concentration −8.0
  Percent Growth: 98%
786-0
  TGI: 2.85E−06
786-0; Log10 Concentration −4.0
  Percent Growth: −54%
786-0; Log10 Concentration −5.0
  Percent Growth: −72%
786-0; Log10 Concentration −6.0
  Percent Growth: 60%
786-0; Log10 Concentration −7.0
  Percent Growth: 95%
786-0; Log10 Concentration −8.0
  Percent Growth: 104%
TK-10
  TGI: 3.10E−06
TK-10; Log10 Concentration −4.0
  Percent Growth: −70%
TK-10; Log10 Concentration −5.0
  Percent Growth: −80%
TK-10; Log10 Concentration −6.0
  Percent Growth: 77%
TK-10; Log10 Concentration −7.0
  Percent Growth: 100%
TK-10; Log10 Concentration −8.0
  Percent Growth: 102%
NCI-H522; Log10 Concentration −4.0
  Percent Growth: −37%
NCI-H522; Log10 Concentration −5.0
  Percent Growth: −66%
NCI-H522; Log10 Concentration −6.0
  Percent Growth: 97%
NCI-H522; Log10 Concentration −7.0
  Percent Growth: 122%
NCI-H522; Log10 Concentration −8.0
  Percent Growth: 110%
NCI-H522
  TGI: 3.94E−06
KM12
  TGI: 2.67E−06
KM12; Log10 Concentration −4.0
  Percent Growth: −51%
KM12; Log10 Concentration −5.0
  Percent Growth: −73%
KM12; Log10 Concentration −6.0
  Percent Growth: 54%
KM12; Log10 Concentration −7.0
  Percent Growth: 91%
KM12; Log10 Concentration −8.0
  Percent Growth: 98%
SW-620
  TGI: 4.23E−06
SW-620; Log10 Concentration −4.0
  Percent Growth: −28%
SW-620; Log10 Concentration −5.0
  Percent Growth: −32%
SW-620; Log10 Concentration −6.0
  Percent Growth: 54%
SW-620; Log10 Concentration −7.0
  Percent Growth: 100%
SW-620; Log10 Concentration −8.0
  Percent Growth: 100%
HCT-116; Log10 Concentration −4.0
  Percent Growth: 5%
HCT-116; Log10 Concentration −5.0
  Percent Growth: −9%
HCT-116; Log10 Concentration −6.0
  Percent Growth: 57%
HCT-116; Log10 Concentration −7.0
  Percent Growth: 93%
HCT-116; Log10 Concentration −8.0
  Percent Growth: 107%

Reference: patent publication US8541460B2, “PDK-1/Akt signaling inhibitors” (The Ohio State University, priority 2003, dated 2013)
